A short description of assay [1]: Binding constant by microcalorimeter (VP-ITC). To be noted: water/formic acid 1:1 by volume, 1.0 mM host. The procedure:
Distilled water and formic acid were mixed in a ratio of 1:1: by volume. Next, 1.0 mM of cucurbit[5]uril derivative was prepared with the diluted formic acid. 20.0 mM of aqueous solution containing ammonium ions, and positive ions of alkaline metals, such as lithium, sodium and potassium, was prepared. Then, the binding constants of the cucurbit[5]uril derivative with these ions were measured using a microcalorimeter (VP-ITC, manufactured by MicroCal). As a result, the cucurbit[5]uril derivative has a binding constant of 5.4×10^3M^−1 with ammonium ions, 3.3×10^2M^−1 with positive lithium ions, 4.5×10^3M^−1 with positive sodium ions, and 2.6×10^4M^−1 with positive potassium ions. The cucurbit[5]uril derivative can selectively bind with alkali metal ions, as well as with ammonium ions. The result confirms that cucurbituril derivatives can be used as ion sensors.

Assay [2] in a line: Complex formation with anti-cancer drug, drug carrier test (NMR). Format: binding. To be noted: in water. Here is the method: The following example is for investigating the function of the cucurbituril derivatives obtained in Synthesis Examples 1 through 10, as a drug carrier. In the following example, cisplatin, an anti-cancer drug, was used.
2.0 mg of Cis-dichloroethylenediamine platinum (II) and 2.0 mg of cucurbit[8]uril were dissolved in water.

A short description of assay [3]: Complex formation with herbicide (NMR). To be noted: methylviologen and host, D2O. Format: binding. Here is the method:
Methylviologendichloride (so-called paraquat), a herbicide, was used. 5.0 mM of mehylbiologendichloride solution was prepared with D2O solvent. Next, cucurbit[8]uril was added to the solution.

Assay [4] can be described thus: Ternary complex formation, amino acid sensing (NMR). Format: binding. Conditions: methylviologen, tryptophan and host, D2O, heated. The procedure:
5.0 mM of methylviologendichloride solution, and 5.0 mM of tryptophan solution were prepared using D2O solvent. 0.25 ml of each solution was mixed with 2.1 mg of cucurbit[8]uril. Next, the mixture was heated until the color changed into red.

The nature of assay [5]: Host-guest complex formation in water (NMR). Format: binding. To be noted: guest 2,6-Bis(4,5-dihydro-1H-imidazol-2-yl)naphthalene dihydrochloride. Here is the method:
5.80 mg of 2,6-Bis(4,5-dihydro-1H-imidazol-2-yl)naphthalene dihydrochloride and 5.0 mg of cucurbit[8]uril were dissolved in water.
4.35 mg of 2,6-Bis(4,5-dihydro-1H-imidazol-2-yl)naphthalene dihydrochloride and 5.0 mg of cucurbit[7]uril were dissolved in water.

Assay [6] is described as follows: Inclusion complex formation in water. The class given is binding. Conditions: guest cyclam, heating then slow cooling. The procedure: 13.0 mg of cyclam tetrahydrochloride (1,4,8,11-tetraazacyclotetradecane tetrahydrochloride) and 10.0 mg of cucurbit[8]uril were dissolved in water.
Assay [7] can be described thus: Inclusion complex formation in water. Format: binding. To be noted: guest cyclen, heating then slow cooling. The procedure:
120.0 mg of cyclen tetrahydrochloride ([…] tetrahydrochloride) and 100.0 mg of cucurbit[8]uril were dissolved in water.

The nature of assay [8]: Ternary complex formation, nucleic acid base sensing (NMR). To be noted: methylviologen, thymine and host, D2O, heated. Format: binding. The procedure: 5.0 mM of methylviologendichloride solution, and 5.0 mM of thymine solution were prepared using D2O solvent. 0.25 ml of each solution was mixed with 2.1 mg of cucurbit[8]uril. Next, the mixture was heated until the color changed into yellow.

Assay [9] can be described thus: Ternary complex formation, amino acid sensing (NMR). Format: binding. Conditions: methylviologen, tyrosine and host, D2O, heated. Here is the method:
5.0 mM of methylviologendichloride solution, and 5.0 mM of tyrosine solution were prepared using D2O solvent. 0.25 ml of each solution was mixed with 2.1 mg of cucurbit[8]uril. Next, the mixture was heated until the color changed into yellow.

A short description of assay [10]: Organic dye removal from water, UV absorption of filtrate. The procedure: 30 mg of organic dye, Direct Red 5B (commercially available from Ciba-Geigy Co.) was dissolved in 150 ml of water to prepare an organic dye solution. To half the organic dye solution, 150 mg of cucurbit[7]uril was added and stirred for 30 minutes.
The precipitate was filtered, and UV absorption spectra were measured at λmax=510 nm on the filtrate and the remaining half of the organic dye solution which was not treated with the cucurbut[7]uril.
R=UV absorption intensity of the dye solution treated with cucurbit[7]uril ×100/UV absorption intensity of the dye solution before the treatment with cucurbit[7]uril.
The following dyes were used: Reactive Blue HE-G (produced by Kyung-In Co.), Direct Solophenyl Violet 4BL (produced by Ciba-Geigy Co.), Reactive Navy Blue HE-R 150 (produced by Kyung-In Co.), Disperse Yellow E-3 (produced by LG Co.), Disperse T/Q Blue S-GL (produced by LG Co.) and Orange TGL (produced by Ciba-Geigy Co.).

A short description of assay [11]: Inclusion complex formation in water. Format: binding. Conditions: guest 1-aminoadamantane, addition of methanol. The procedure: 24.2 mg of 1-aminoadanmatane hydrochloride and 50.0 mg of cucurbi[7]uril were dissolved in water.

Consider `O=C1N2CN3C(=O)N4CN5C(=O)N6CN7C(=O)N8CN9C(=O)N%10CN1C1C2N2CN%11C(=O)N(CN%12C(=O)N(CN%13C(=O)N(CN%14C(=O)N(CN1C2=O)C%10C9%14)C8C7%13)C6C5%12)C4C3%11` (stereo not shown) [cucurbit[5]uril], for which, in assay [1], the “binding constant with ammonium ions” value is 5400 M⁻¹, the “binding constant with positive lithium ions” value amounted to 330 M⁻¹, the “binding constant with positive potassium ions” value stood at 26000 M⁻¹ and the “binding constant with positive sodium ions” value turned out to be 4500 M⁻¹.

As to `O=C1N2CN3C(=O)N4CN5C(=O)N6CN7C(=O)N8CN9C(=O)N%10CN%11C(=O)N%12CN%13C(=O)N%14CN%15C(=O)N%16CN1C1C2N2CN%17C(=O)N(CN%18C(=O)N(CN%19C(=O)N(CN%20C(=O)N(CN%21C(=O)N(CN%22C(=O)N(CN%23C(=O)N(CN1C2=O)C%16C%15%23)C%14C%13%22)C%12C%11%21)C%10C9%20)C8C7%19)C6C5%18)C4C3%17` (stereo not shown) [cucurbit[8]uril], the “complex formation and stoichiometry (platinum compound : host)” value in assay [2] is “quantitative formation of a 2:1 complex”. Further, the “complex formation and stoichiometry” value in assay [3] was “quantitative formation of a 1:1 complex”; in [4] it was “quantitative formation of a 1:1:1 complex”; in assay [8], “quantitative formation of a 1:1:1 complex”; in assay [9] it was “quantitative formation of a 1:1:1 complex”. The “host-guest complex formation and stoichiometry” value in assay [5] is “quantitative formation of a 1:2 host-guest complex”. For the same compound, the inclusion complex formation result in assay [6] and in assay [7] was “produced an inclusion complex” in each case.

In the case of cucurbit[7]uril, the “host-guest complex formation and stoichiometry” value in assay [5] is listed as “quantitative formation of a 1:1 host-guest complex”. Moreover, the R in [10] (Direct Red 5B, 510 nm, R = intensity after treatment ×100 / intensity before) amounted to 1.7%; in [10] (Direct Solophenyl Violet 4BL, 546 nm, R = intensity after ×100 / before) it was 1.3%; in assay [10] (Disperse T/Q Blue S-GL 200, 776 nm, R = intensity after ×100 / before), 0.8%; in [10] (Disperse Yellow E-3, 429 nm, R = intensity after ×100 / before), 3.0%; in assay [10] (Orange TGL, 419 nm, R = intensity after ×100 / before), 5.4%; in [10] (Reactive Blue HE-G, 626 nm, R = intensity after ×100 / before), 0.3%. The R in assay [10] (Reactive Blue HE-G, 662 nm, R = intensity after ×100 / before) was found to be 0.3%; in assay [10] (Reactive Navy Blue HE-R 150, 609 nm, R = intensity after ×100 / before), 0.6%. Further, the inclusion complex formation entry in assay [11] was “produced an inclusion complex”.

For the origin of these results see US6365734B1, “Cucurbituril derivatives, their preparation methods and uses” (Pohang University of Science and Technology Foundation, priority 1999, dated 2002).
